Laboratory results: patent publication US11786534B2 (TAIHO PHARMACEUTICAL CO., LTD., priority 2019, dated 2023)
Where two headings read alike, the source gives them in different places.

What was measured:
[1] = biological target: Ba/F3-EGFR (L858R/T790M/C797S) (Homo sapiens, UniProt P00533, T790M/C797S/L858R, cells depend on it); assay: Growth inhibition of cell line expressing EGFR (L858R/T790M/C797S); format: cell-based, mouse; conditions: read-out: BaF3_EGFR (L858R/T790M/C797S) IC50 value
From the text: (§1) Test for inhibitory activity against the growth of cell lines expressing wild-type and mutated EGFRs (in vitro)
(§2) (1) Mouse cell line Ba/F3-EGFR (d746-750/T790M/C797S) transfected with and stably expressing EGFR (d746-750/T790M/C797S), mouse cell Ba/F3-EGFR (L858R/T790M/C797S) transfected with and stably expressing EGFR (L858R/T790M/C797S), and mouse cell line Ba/F3-EGFR (WT) transfected with and stably expressing wild-type EGFR were each suspended in RPMI-1640 cell culture medium (RPMI-1640, 10% FBS, 100 unit/ml penicillin, 0.1 mg/ml streptomycin). In the case of the mouse cell line Ba/F3-EGFR (WT), RPMI-1640 cell culture medium containing EGF at a final concentration of 50 ng/ml was used to suspend this cell line. It should be noted that the mouse cell line Ba/F3-EGFR (d746-750/T790M/C797S) transfected with and stably expressing EGFR (d746-750/T790M/C797S), the mouse cell line Ba/F3-EGFR (L858R/T790M/C797S) transfected with and stably expressing EGFR (L858R/T790M/C797S) and the mouse cell line Ba/F3-EGFR (WT) transfected with and stably expressing wild-type EGFR were prepared by using nucleotide sequences encoding the proteins of SEQ ID NOs: 1 and 2 in accordance with Test Example 1 in WO2018/079310, These cell suspensions were seeded in wells of 96-well flat -bottomed plates. The compounds of the present invention were dissolved in DMSO, and serial dilutions of these test compounds were prepared with DMSO (1000-fold of the final concentration). Each test compound solution in DMSO or DMSO alone was diluted with RPMI-1640 cell culture medium for each cell line, and this dilution was added to wells of the cell culture plate such that the final concentration of DMSO was 0.1%, followed by culture at 37° C. for 3 days in a 5% carbon dioxide gas-containing incubator. Before and after addition of each test compound solution in DMSO, the number of cells was counted using the CellTiter-Glo® system (Promega) on the basis of the protocol recommended by Promega.
(§3) In each cell line, the rate of cell growth inhibition was calculated according to the equation shown below in wells to which each test compound was added at different concentrations. Moreover, the inhibition rate at each concentration was plotted for each test compound, and the concentration of each test compound required to give 50% cell survival rate, i.e., IC50 (nM) was determined by curve fitting software XLfit (IDBS).
(§4) Cell survival rate (%)=T/C×100
(§5) T: emission intensity in a well cultured for 3 days after addition of a test compound solution
(§6) C: emission intensity in a well cultured for 3 days after addition of DMSO
(§7) In accordance with the same procedures as shown in Test Example 2, the compounds of the present invention were tested for their inhibitory activity against the growth of the cell hoes expressing wild-type and mutated EGFRs.

[2] = biological target: T1, human EGFR (d746-750/T790M/C797S) (Homo sapiens, UniProt P00533, C797S/DEL746-750/T790M); assay: Inhibitory activity against EGFR (d746-750/T790M/C797S) kinase; format: biochemical; conditions: Test Example 1, Table 2; ATP 6 μM, 25° C., 120 minutes
T1 construct: made in house; host or cells: Sf9 insect cells, baculovirus
Summary of the method: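 GST-fused cytoplasmic domain of human EGFR d746-750/T790M/C797S (Sf9-expressed) was incubated with 250 nM biotinylated peptide, 6 μM ATP, 10 mM MgCl2 and 10 mM MnCl2 (2.5% DMSO) for 120 min at 25 °C. After an EDTA stop, phosphotyrosine was detected by Eu-PT66/SureLight APC-SA TR-FRET (665/620 nm, excitation 337 nm). Background wells received EDTA before enzyme.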

Ba/F3-EGFR (WT) = Ba/F3-EGFR (WT) (Homo sapiens, UniProt P00533); assay: Growth inhibition of cell line expressing wild-type EGFR; format: cell-based, mouse; conditions: read-out: BaF3_EGFR (WT) IC50 value
From the text: as §1, §2, §3, §4, §5, §6, §7

[3] = Test Example 2, Table 7, culture 3 days, CellTiter-Glo
[4] = Test Example 2, Table 7, culture 3 days, EGF 50 ng/ml, CellTiter-Glo
[5] = Test Example 4, Table 13, same procedures as Test Example 2

Sequence of Ba/F3-EGFR (WT) (P00533 whole entry, change not shown): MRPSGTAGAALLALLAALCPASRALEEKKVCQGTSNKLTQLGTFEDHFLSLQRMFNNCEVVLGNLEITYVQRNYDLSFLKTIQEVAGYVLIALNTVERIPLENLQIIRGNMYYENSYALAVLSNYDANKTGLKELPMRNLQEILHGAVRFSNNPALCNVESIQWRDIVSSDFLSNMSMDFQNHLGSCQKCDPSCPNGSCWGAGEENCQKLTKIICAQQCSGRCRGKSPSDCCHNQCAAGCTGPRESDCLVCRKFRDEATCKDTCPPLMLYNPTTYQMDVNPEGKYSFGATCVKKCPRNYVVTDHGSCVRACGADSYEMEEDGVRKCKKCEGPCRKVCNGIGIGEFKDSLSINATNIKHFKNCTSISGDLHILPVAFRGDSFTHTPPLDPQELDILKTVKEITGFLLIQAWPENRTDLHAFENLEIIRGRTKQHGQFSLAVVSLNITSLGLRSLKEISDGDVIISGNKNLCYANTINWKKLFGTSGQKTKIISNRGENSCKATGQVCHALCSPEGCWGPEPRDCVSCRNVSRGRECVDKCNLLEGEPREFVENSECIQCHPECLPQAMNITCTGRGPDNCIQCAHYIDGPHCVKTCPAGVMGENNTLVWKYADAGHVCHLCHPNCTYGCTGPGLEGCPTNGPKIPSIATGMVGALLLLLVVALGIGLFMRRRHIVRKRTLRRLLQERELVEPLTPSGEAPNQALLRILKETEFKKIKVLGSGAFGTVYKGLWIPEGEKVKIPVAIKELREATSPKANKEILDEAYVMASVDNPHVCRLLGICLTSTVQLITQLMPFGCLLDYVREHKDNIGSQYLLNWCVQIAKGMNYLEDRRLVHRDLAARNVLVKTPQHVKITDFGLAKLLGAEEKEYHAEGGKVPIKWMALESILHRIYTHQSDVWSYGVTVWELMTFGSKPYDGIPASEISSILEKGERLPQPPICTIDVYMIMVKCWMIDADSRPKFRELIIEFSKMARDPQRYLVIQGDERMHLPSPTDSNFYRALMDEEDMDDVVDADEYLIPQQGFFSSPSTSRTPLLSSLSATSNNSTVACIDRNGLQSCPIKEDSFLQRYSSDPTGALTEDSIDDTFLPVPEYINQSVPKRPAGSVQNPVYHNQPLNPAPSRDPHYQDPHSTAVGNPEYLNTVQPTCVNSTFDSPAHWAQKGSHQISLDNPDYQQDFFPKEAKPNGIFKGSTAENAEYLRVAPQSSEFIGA
Sequence of Ba/F3-EGFR (L858R/T790M/C797S) (P00533 whole entry T790M/C797S/L858R): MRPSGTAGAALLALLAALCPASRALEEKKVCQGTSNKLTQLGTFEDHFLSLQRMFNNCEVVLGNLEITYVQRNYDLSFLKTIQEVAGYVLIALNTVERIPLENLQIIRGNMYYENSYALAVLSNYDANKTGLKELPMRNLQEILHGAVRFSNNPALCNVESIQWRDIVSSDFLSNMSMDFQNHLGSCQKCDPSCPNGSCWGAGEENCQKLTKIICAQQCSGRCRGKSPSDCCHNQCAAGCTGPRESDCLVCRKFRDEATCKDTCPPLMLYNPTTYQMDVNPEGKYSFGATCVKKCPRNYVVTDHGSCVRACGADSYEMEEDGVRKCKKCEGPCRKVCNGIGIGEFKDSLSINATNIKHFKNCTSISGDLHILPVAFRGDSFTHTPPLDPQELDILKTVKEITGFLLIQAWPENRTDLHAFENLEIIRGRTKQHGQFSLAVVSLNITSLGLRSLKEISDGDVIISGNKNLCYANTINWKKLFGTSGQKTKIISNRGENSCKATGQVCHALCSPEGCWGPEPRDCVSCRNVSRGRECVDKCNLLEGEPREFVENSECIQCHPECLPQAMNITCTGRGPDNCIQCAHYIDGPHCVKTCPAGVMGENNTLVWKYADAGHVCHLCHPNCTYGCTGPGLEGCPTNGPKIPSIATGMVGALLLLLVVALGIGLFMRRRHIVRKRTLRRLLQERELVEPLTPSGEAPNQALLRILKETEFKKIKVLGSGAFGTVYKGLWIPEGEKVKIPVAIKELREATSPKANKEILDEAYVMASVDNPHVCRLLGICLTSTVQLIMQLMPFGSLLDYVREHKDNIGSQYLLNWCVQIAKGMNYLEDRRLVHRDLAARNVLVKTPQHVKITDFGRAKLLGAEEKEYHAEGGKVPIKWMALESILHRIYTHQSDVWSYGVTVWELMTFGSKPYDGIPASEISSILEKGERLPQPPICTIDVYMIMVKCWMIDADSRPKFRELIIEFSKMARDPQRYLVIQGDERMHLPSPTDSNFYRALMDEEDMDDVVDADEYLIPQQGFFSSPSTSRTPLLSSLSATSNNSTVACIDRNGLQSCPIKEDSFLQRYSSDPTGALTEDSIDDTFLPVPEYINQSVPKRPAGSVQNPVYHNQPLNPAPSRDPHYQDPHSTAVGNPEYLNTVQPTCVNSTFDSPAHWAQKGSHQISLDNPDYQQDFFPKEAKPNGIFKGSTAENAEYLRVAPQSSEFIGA
T1 sequence (P00533 with tags, fused parts or gaps DEL746-750/T790M/C797S): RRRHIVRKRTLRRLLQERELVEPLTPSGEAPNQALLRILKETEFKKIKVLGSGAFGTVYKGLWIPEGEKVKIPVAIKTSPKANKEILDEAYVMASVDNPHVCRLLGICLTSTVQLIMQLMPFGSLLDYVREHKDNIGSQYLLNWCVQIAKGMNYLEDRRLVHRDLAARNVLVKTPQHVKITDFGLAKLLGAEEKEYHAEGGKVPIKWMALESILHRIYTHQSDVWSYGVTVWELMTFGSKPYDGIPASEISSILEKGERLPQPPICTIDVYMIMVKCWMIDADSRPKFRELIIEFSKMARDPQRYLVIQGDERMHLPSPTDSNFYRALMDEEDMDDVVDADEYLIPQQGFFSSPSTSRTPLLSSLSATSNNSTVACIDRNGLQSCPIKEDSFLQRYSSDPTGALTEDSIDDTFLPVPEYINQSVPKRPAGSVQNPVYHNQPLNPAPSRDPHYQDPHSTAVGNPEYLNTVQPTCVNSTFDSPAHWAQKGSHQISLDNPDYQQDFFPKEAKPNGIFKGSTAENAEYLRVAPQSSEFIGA

| GI50 [1, 3] [nM] | IC50 [2] [nM] | GI50 (Ba/F3-EGFR (WT); [4]) [nM] | GI50 [1, 5] [nM] | GI50 (Ba/F3-EGFR (WT); [5]) [nM] | Structure (SMILES) |
| --- | --- | --- | --- | --- | --- |
| 529 | < 0.3 | 3330 | – | – | C#Cc1c(-c2cnc3ccccc3c2)c2c(N)ncnc2n1C12CCC(NC(=O)c3ccnnc3)(CC1)C2 [Example 3, N-(4-(4-Amino-6-ethynyl-5-(quinolin-3-yl)-7H-pyrrolo[2,3-d]pyrimidin-7-yl)bicyclo-[2.2.1]heptan-1-yl)pyridazine-4-carboxamide] |
| – | < 0.3 | – | 268 | 2260 | C#Cc1c(-c2cnc3ccccc3c2)c2c(N)ncnc2n1C12CCC(NC(=O)c3ccno3)(CC1)C2 [Example 44] |
| 417 | < 0.3 | 3290 | – | – | C#Cc1c(-c2cnc3ccccc3c2)c2c(N)ncnc2n1C12CCC(NC(=O)c3ccncc3)(CC1)C2 [Example 43] |
| 2260 | 142 | 2460 | – | – | C=CC(=O)N1CC[C@@H](n2cc(-c3cnc4ccccc4c3)c3c(N)ncnc32)C1 [Comparative Example A, (R)-1-(3(4-Amino-5-(quinolin-3-yl)-7H-pyrrolo[2,3-d]pyrimidin-7-yl)pyrrolidin-1-yl) -prop-2-en-1-one, reference compound] |
| – | < 0.3 | – | 283 | 1920 | C#Cc1c(-c2cnc3ccccc3c2)c2c(N)ncnc2n1C12CCC(NC(=O)c3ccc4ncnn4c3)(CC1)C2 [Example 16, N-(4-(4-Amino-6-ethynyl-5-(quinolin-3-yl)-7H-pyrrolo[2,3-d]pyrimidin-7-yl)bicyclo-[2.2.1]heptan-1-yl)-[1.2.4]triazolo[1,5-a]pyrimidin-6-carboxamide] |
| 305 | < 0.3 | 3400 | – | – | C#Cc1c(-c2cnc3ccccc3c2)c2c(N)ncnc2n1C12CCC(NC(=O)c3cccnc3)(CC1)C2 [Example 45] |
| – | < 0.3 | – | 592 | > 2000 | C#Cc1c(-c2cnc3ccccc3c2)c2c(N)ncnc2n1C12CCC(N3CCOCC3)(CC1)C2 [Example 9, 6-Ethynyl-7-(4-morpholinobicyclo[2.2.1]heptan-1-yl)-5-(quinolin-3-yl)-7H-pyrrolo[2,3-d]pyrimidine-4-amine] |
